Results: patent publication US20220389009A1, “SUBSTITUTED 1,6-NAPHTHYRIDINE INHIBITORS OF CDK5” (Goldfinch Bio, Inc., priority 2019, published 2022)
pIC50: −log10 of the molar value.

Legend:
CDK5/p25 = CDK5/p25 (Homo sapiens, UniProt Q00535); experiment: CDK5 mobility shift assay (enzymatic activity of CDK5/p25); type: biochemical; conditions: for pIC50: 0.154 nM CDK5/p25, FL peptide 29, 60 min at room temperature, read-out: CDK5 IC50; for CDK5/CDK2 specificity: fold more active against CDK5 than CDK2
Sequence of CDK5/p25 (Q00535 whole entry): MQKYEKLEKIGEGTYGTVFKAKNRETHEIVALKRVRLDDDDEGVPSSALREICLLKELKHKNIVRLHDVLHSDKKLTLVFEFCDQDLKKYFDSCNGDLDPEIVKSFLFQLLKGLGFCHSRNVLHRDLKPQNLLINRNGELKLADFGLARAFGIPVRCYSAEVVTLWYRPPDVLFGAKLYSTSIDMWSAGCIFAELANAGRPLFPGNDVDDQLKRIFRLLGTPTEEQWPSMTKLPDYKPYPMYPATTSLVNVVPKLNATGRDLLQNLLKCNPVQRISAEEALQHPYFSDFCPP
Sequence of CDK5/p25 (Q15078 99-307 partner limits assumed): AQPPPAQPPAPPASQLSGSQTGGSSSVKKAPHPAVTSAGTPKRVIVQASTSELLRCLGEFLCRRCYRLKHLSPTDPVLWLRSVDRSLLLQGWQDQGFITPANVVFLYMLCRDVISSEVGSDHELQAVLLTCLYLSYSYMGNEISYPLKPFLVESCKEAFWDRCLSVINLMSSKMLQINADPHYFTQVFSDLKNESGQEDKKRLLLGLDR
Method: (§1) Compound potency was measured via a change in the enzymatic activity of CDK5/p25, and optionally of CDK2/CycA2. Enzymes, CDK5/p25 and CDK2/CycA2, were sourced from Carna Biosciences (Cat #04-106 and 04-103, respectively). Test compound stocks were diluted in 100% DMSO and serially diluted 3-fold in a 384-well plate using a TECAN EVO200 (TECAN). Staurosporine was used as a reference control compound in all assays.
(§2) Twenty nL of compound were transferred into a 384-well plate (Greiner 781201) using an Echo550 (Labcyte Inc). Enzyme, ATP, and 10 mM MgCl2 were preincubated at room temperature with the compound in assay buffer (50 mM HEPES pH 7.5, 1 mM EGTA, 0.01% Brij-35, 0.05% BSA, 2 mM DTT) for 30 minutes. Peptide substrate (FL peptide 29 (Perkin Elmer) for CDK5/p25; FL Peptide 18 (Perkin Elmer) for CDK2/CycA2) was added to initiate the reaction. The final assay contained 0.154 nM CDK5/p25 or 1.25 nM CDK2/CycA2, […] (for CDK5/p25) or 37 μM (for CDK2/CycA2) ATP, and 1.5 μM of the appropriate peptide substrate. The final DMSO concentration was <1%.
(§3) The CDK5/p25 reaction was incubated at room temperature for 60 min. The CDK2/CycA2 reaction was incubated at room temperature for 120 min. The reactions were quenched by the addition of 70 μL stopping buffer containing 0.5 M EDTA. Samples were analyzed using the EZ Reader (Perkin Elmer).
(§4) The results were expressed as % vehicle, where % vehicle=100×(U−C2)/(C1−C2), where U is the signal of sample, C1 is the average of the high controls (signal with no compound added), and C2 is the average of low controls (signal with the buffer in place of enzyme). The ICso is determined by fitting the percentage of inhibition as a function of compound concentrations using a 4-parameter fit defined as follows.
(§5) Y=Bottom+(Top−Bottom)/(1+10^((LobIC50-X)*Hill Slope)), where X is the log of the compound concentration, Y is the % vehicle or response at X, Top and Bottom are the plateaus in the same units as Y, and the Hill's Slope is unitless, and the ICso is the half-maximal inhibitory concentration.

CDK2/CycA2 = CDK2/CycA2 (Homo sapiens, UniProt P24941); experiment: CDK2 mobility shift assay (enzymatic activity of CDK2/CycA2); type: biochemical; conditions: 1.25 nM CDK2/CycA2, 37 μM ATP, FL Peptide 18, 120 min at room temperature; read-out: CDK2 IC50
Method: as §1, §2, §3, §4, §5

pIC50 (CDK5/p25) | pIC50 (CDK2/CycA2) | SMILES | CDK5/CDK2 specificity (CDK5/p25)
> 8.00 | 7.00 to 8.00 | CN1CCC([C@@](C)(O)c2ccc3cnc(Nc4ccc(-n5cc(C(=O)O)cn5)cc4F)cc3n2)CC1 [Compound 362, 1-[3-fluoro-4-([2-[(1R)-1-hydroxy-1-(1-methylpiperidin-4-yl)ethyl]-1,6-naphthyridin-7-yl]amino)phenyl]pyrazole-4-carboxylic acid] | ++ (greater than 10-fold and less than or equal to 100-fold more active against CDK5 than CDK2)
> 8.00 | 6.00 to 7.00 | CN1CCC(C(C)(O)c2ccc3cnc(Nc4ccc(-n5ccc(C#N)n5)cc4F)cc3n2)CC1 (stereo not drawn) [Compound 371] | ++ (greater than 10-fold and less than or equal to 100-fold more active against CDK5 than CDK2)
> 8.00 | 6.00 to 7.00 | CC(c1ccc2cnc(Nc3ccc(-n4cccn4)cc3F)cc2n1)C1CCN(C)CC1 (stereo not drawn) [Compound 386] | ++ (greater than 10-fold and less than or equal to 100-fold more active against CDK5 than CDK2)
> 8.00 | 6.00 to 7.00 | CN1CCC(C(O)c2ccc3cnc(Nc4ccc(-n5ccc(CO)n5)cc4F)cc3n2)CC1 (single isomer, unassigned) [Compound 254, [7-([2-fluoro-4-[3-(hydroxymethyl)pyrazol-1-yl]phenyl]amino)-1,6-naphthyridin-2-yl](1-methylpiperidin-4-yl)methanol] | +++ (greater than 100-fold more active against CDK5 than CDK2)
< 6.00 | < 6.00 | COc1cc(-c2ccc(Nc3cc4nc(C(C)(O)C5CCN(C)CC5)ccc4cn3)c(F)c2)ccn1 (stereo not drawn) [Compound 330] | ++ (greater than 10-fold and less than or equal to 100-fold more active against CDK5 than CDK2)
6.00 to 7.00 | < 6.00 | COC(=O)c1ccn(-c2ccc(Nc3cc4nc(C(O)C5CCN(C)CC5)ccc4cn3)c(F)c2)n1 (stereo not drawn) [Compound 344] | ++ (greater than 10-fold and less than or equal to 100-fold more active against CDK5 than CDK2)
6.00 to 7.00 | < 6.00 | CN1CCC(C)(Nc2ccc3cnc(Nc4ccc(-n5ccc(CO)n5)cc4F)cc3n2)CC1 [Compound 140, [1-[4-([2-[(1,4-dimethylpiperidin-4-yl)amino]-1,6-naphthyridin-7-yl]amino)-3-fluorophenyl]pyrazol-3-yl]methanol] | + (10-fold or less more active against CDK5 than CDK2)
> 8.00 | 7.00 to 8.00 | CN1CCC(S(=O)(=O)c2ccc3cnc(Nc4cccc(N5CCOC5=O)c4)cc3n2)CC1 [Compound 284] | ++ (greater than 10-fold and less than or equal to 100-fold more active against CDK5 than CDK2)
7.00 to 8.00 | < 6.00 | CN1CCC(S(=O)(=O)c2ccc3cnc(Nc4ccc(-c5cccn(C)c5=O)cc4F)cc3n2)CC1 [Compound 378] | +++ (greater than 100-fold more active against CDK5 than CDK2)
> 8.00 | 7.00 to 8.00 | CN1CCC(C(C)(O)c2ccc3cnc(Nc4ccc(-c5noc(=O)[nH]5)cc4F)cc3n2)CC1 (stereo not drawn) [Compound 355] | ++ (greater than 10-fold and less than or equal to 100-fold more active against CDK5 than CDK2)
6.00 to 7.00 | < 6.00 | Cc1ccc(F)c(Nc2cc3nc(C(O)(C4CCN(C)CC4)C(F)(F)F)ccc3cn2)c1 (stereo not drawn) [Compound 390] | ++ (greater than 10-fold and less than or equal to 100-fold more active against CDK5 than CDK2)
> 8.00 | 7.00 to 8.00 | Cc1cccc(Nc2cc3nc(C(C)(O)C4CCN(C)CC4)ccc3cn2)c1 (stereo not drawn) [Compound 341] | ++ (greater than 10-fold and less than or equal to 100-fold more active against CDK5 than CDK2)
> 8.00 | 6.00 to 7.00 | Cc1ccccc1Nc1cc2nc(S(=O)(=O)C3CCN(C)CC3)ccc2cn1 [Compound 297] | +++ (greater than 100-fold more active against CDK5 than CDK2)
> 8.00 | 7.00 to 8.00 | CN1CCC(S(=O)(=O)c2ccc3cnc(Nc4ccc(N5CCOC5=O)cc4)cc3n2)CC1 [Compound 307] | ++ (greater than 10-fold and less than or equal to 100-fold more active against CDK5 than CDK2)
7.00 to 8.00 | 6.00 to 7.00 | CN1CCC(S(=O)(=O)c2ccc3cnc(Nc4ccc5c(c4)C(=O)N(C)C5)cc3n2)CC1 [Compound 275] | ++ (greater than 10-fold and less than or equal to 100-fold more active against CDK5 than CDK2)
7.00 to 8.00 | 6.00 to 7.00 | Fc1cc(-n2cccn2)ccc1Nc1cc2nc(CC3CCNCC3)ccc2cn1 [Compound 124, N-[2-fluoro-4-(pyrazol-1-yl)phenyl]-2-(piperidin-4-ylmethyl)-1,6-naphthyridin-7-amine] | ++ (greater than 10-fold and less than or equal to 100-fold more active against CDK5 than CDK2)
> 8.00 | 7.00 to 8.00 | CN1CCC(S(=O)(=O)c2ccc3cnc(Nc4ccc(N(C)C)cc4)cc3n2)CC1 [Compound 306] | +++ (greater than 100-fold more active against CDK5 than CDK2)
> 8.00 | 6.00 to 7.00 | COc1cc(-c2ccc(Nc3cc4nc(C(C)C5CCN(C)CC5)ccc4cn3)c(F)c2)ccn1 (stereo not drawn) [Compound 333] | +++ (greater than 100-fold more active against CDK5 than CDK2)
> 8.00 | 6.00 to 7.00 | C=C(c1ccc2cnc(Nc3ccc(-n4ccc(CO)n4)cc3F)cc2n1)C1CCNCC1 [Compound 139, [1-[3-fluoro-4-([2-[1-(piperidin-4-yl)ethenyl]-1,6-naphthyridin-7-yl]amino)phenyl]pyrazol-3-yl]methanol] | +++ (greater than 100-fold more active against CDK5 than CDK2)
6.00 to 7.00 | 6.00 to 7.00 | CN1CCN(S(=O)(=O)c2ccc3cnc(Nc4ccc(-n5ccc(CO)n5)cc4F)cc3n2)CC1 [Compound 245, [1-(3-fluoro-4-[[2-(4-methylpiperazin-1-ylsulfonyl)-1,6-naphthyridin-7-yl]amino]phenyl)pyrazol-3-yl]methanol] | + (10-fold or less more active against CDK5 than CDK2)
> 8.00 | > 8.00 | CN1CCC(C(=O)c2ccc3cnc(Nc4ccc(-n5cccn5)cc4F)cc3n2)CC1 [Compound 217, N-[2-fluoro-4-(pyrazol-1-yl)phenyl]-2-(1-methylpiperidine-4-carbonyl)-1,6-naphthyridin-7-amine] | ++ (greater than 10-fold and less than or equal to 100-fold more active against CDK5 than CDK2)
6.00 to 7.00 | < 6.00 | OCc1ccn(-c2ccc(Nc3cc4nc(C(CO)C5CCNCC5)ccc4cn3)c(F)c2)n1 (stereo not drawn) [Compound 142] | + (10-fold or less more active against CDK5 than CDK2)

SMILES | pIC50 (CDK5/p25) | pIC50 (CDK2/CycA2) | CDK5/CDK2 specificity (CDK5/p25)
CN(c1ccc2cnc(Nc3ccccc3F)cc2n1)C1CCNCC1 [Compound 100, N7-(2-fluorophenyl)-N2-methyl-N2-(piperidin-4-yl)-1,6-naphthyridine-2,7-diamine] | 6.00 to 7.00 | < 6.00 | ++ (greater than 10-fold and less than or equal to 100-fold more active against CDK5 than CDK2)
